Here are results for 1 molecule from publication PMC9610207 (Viruses, 2022).

Test [1] relates to SARS-CoV-2. The conditions noted are these: cited from earlier work.
Test [2] relates to SARS-CoV-2. It is filed as cell-based.
Test [3] relates to SARS-CoV-2. To be noted: cited from earlier work. The source holds these as a separate data set.
The test system of test [4] is SARS-CoV-2. It is filed as cell-based. This is another data set of the same source.

In the case of `CCN(CC)CCCC(C)Nc1ccnc2cc(Cl)ccc12` (stereo not shown) [chloroquine, Chloroquine], the “SARS-CoV-2 infection in Calu-3, previous studies” value with SARS-CoV-2 [1] is given as “not”. Besides, the “viral infection in VeroE6 with chloroquine” value with SARS-CoV-2 [2] is “strongly inhibited”. For the same molecule, the “SARS-CoV-2 infection in VeroE6, previous studies” value in the test with SARS-CoV-2 [3] was “inhibited”. Further, the “viral infection in Calu-3 with chloroquine” value in the test with SARS-CoV-2 [4] is given as “resistant”.
